In brackets after ≈: the same amount, converted by molar mass.
How the values were obtained:
[1] = test system: Weizenmehltau (Erysiphe graminis); assay: wheat powdery mildew, curative spray test on wheat plants (Versuch I); assay type: in vivo; conditions: untreated infected control = 100 %
Method: Weizenpflanzen werden im 3-Blattstadium mit Konidien des Weizenmehltaus (Erysiphe graminis) stark inokuliert und in einem Gewächshaus bei 20°C und einer relativen Luftfeuchte von 90 - 95% aufgestellt. 3 Tage nach Inokulation werden die Pflanzen mit den in Tabelle 6 aufgeführten Verbindungen in den angegebenen Wirkstoffkonzentrationen gleichmäßig benetzt. Nach einer Inkubationszeit von 10 Tagen werden die Pflanzen auf den Befall mit Weizenmehltau untersucht. Der Befallsgrad wird ausgedrückt in % befallener Blattfläche, bezogen auf unbehandelte, infizierte Kontrollpflanzen (= 100% Befall). Das Ergebnis ist in der Tabelle 6 zusammengefaßt.

[2] = test system: Trichophyton mentagrophytes; assay: local in vivo efficacy in experimentally infected guinea pigs, dermal treatment; parameters: species or system Meerschweinchen (Stamm Pirbright white); conditions: Dermal 5 x 0.1 %; for Mykosen (Durchmesser in mm) Präparat + Vehikel x2: from day 3 after infection, mean, n = 6 measurements; for Mykosen Differenz (%): difference relative to Clotrimazol = 100; for Mykosen (Durchmesser in mm) Differenz x1 - x2: vehicle control side minus treated side
Excerpt: Als Beispiel für die hohe lokale in vivo Wirksamkeit der erfindungsgemäßen Verbindungen werden Behandlungsergebnisse an experimentell mit Trichophyton mentagrophytes infizierten Labortieren angeführt.
Zur Feststellung der lokalen Wirksamkeit wurden jeweils zwei 450-500 g schwere Meerschweinchen (Stamm Pirbright white) mit 1,5 x 10^4 Konidien/Tier in die Epidermis, verteilt auf 6 Infektionspunkte, infiziert.
Die Behandlung der Tiere erfolgte dermal ab dem 3. Tag nach der Infektion an 5 aufeinanderfolgenden Tagen durch Aufbringen einer 0,1 %igen Präparatlösung auf 3 Infektionsstellen einer Rückenseite. Die andere Rückenseite wurde mit Vehikel ohne Präparat auf gleiche Weise behandelt.
Neben den mit den erfindungsgemäßen Substanzen behandelten Tieren wurden zwei Tiere mit der Referenzsubstanz Clotrimazol behandelt, zwei Tiere blieben nach der Infektion unbehandelt.

[3] = test system: Candida albicans (200/175); assay: in vitro antimycotic serial dilution test (microtitration technique); assay type: cell-based; conditions: read-out: Minimale Hemmkonzentration
[4] = test system: Aspergillus niger (500/284); assay: as above; assay type: cell-based; conditions: read-out: Minimale Hemmkonzentration
Excerpt: (§1) Die in vitro-Prüfungen auf antimykotische Wirkung wurden im Reihenverdünnungstest an Hauptpilzen (Trichophyton mentagrophytes, Trichophyton rubrum, Microsporum canis), Hefepilzen (Candida Albicans) und Schimmelpilzen (Aspergillus niger) durchgeführt (Material und Methodik: Mikrotitrationstechnik veröffentlicht in Mykosen 27,14 (1984). Wie aus Tabelle 4 ersichtlich, zeigen bei diesen in vitro-Prüfungen die erfindungsgemäßen Verbindungen gute antimykotische Eigenschaften,die denjenigen der Referenzsubstand Clotrimazol überlegen sind.

[5] = test system: Microsporum canis (150/120); assay: as above; assay type: cell-based; conditions: read-out: Minimale Hemmkonzentration
Excerpt: as §1

[6] = test system: Trichophyton mentagrophytes (100/25); assay: as above; assay type: cell-based; conditions: read-out: Minimale Hemmkonzentration
Excerpt: as §1

[7] = test system: Trichophyton rubrum (101/58); assay: as above; assay type: cell-based; conditions: read-out: Minimale Hemmkonzentration
Excerpt: as §1

[8] = test system: Pentetrazol-induzierte Krämpfe; assay: antagonism of pentetrazol-induced convulsions (PTZ); assay type: in vivo, Maus; conditions: mouse; pentetrazol 125 mg/kg s.c. 1 h after oral test substance; tonic extensor convulsions; read-out: ED50 (mg/kg p.o.) Ptz
Method: Antagonismus gegen Pentetrazol-induzierte Krämpfe (Maus) (PTZ)
(§2) Methode: • Gruppen von 10 männlichen Mäusen (Stamm: NMRI, SPF-71, KF) im Gewicht von 18-22 g werden in diesem Versuch verwendet. Die zu prüfenden Substanzen werden in einer 1 %igen Aufschwemmung von Tylose (Methyl-hydroxy-ethyl-cellulose) in Wasser suspendiert und per Schlundsonde in einem Volumen von 10 ml/kg Körpergewicht oral verabreicht. Die Kontrollgruppe erhält ein entsprechendes Volumen Tylosesuspension ohne Prüfsubstanz.
Pentetrazol (Cardiazol (R)) wird in wäßriger Lösung in einer Dosis von 125 mg/kg Körpergewicht 1 Stunde nach Verabreichung der Prüfsubstanzen subcutan injiziert. Diese Dosis erzeugt bei 90-100 % der Kontrolltiere innerhalb der Beobachtungszeit von 60 Minuten nach der Injektion tonische Extensorkrämpfe der hinteren Extremitäten. Als Schutzwirkung der Prüfsubstanz wird gewertet, wenn die Anzahl der krampfenden Tiere gegenüber der Kontrollgruppe vermindert ist.
Bei vorhandener Schutzwirkung der Prüfsubstanz wird eine mittlere effektive Dosis (ED-50) grafisch (Litchfield and Wilcoxon) oder rechnerisch(Probitanalyse) ermittelt.
Literatur: E.A. SWINYARD, J.Pharmacol.Exp. Ther. 106, (1952), 319-330

[9] = test system: Elektroschock-induzierte Krämpfe; assay: antagonism of electroshock-induced convulsions (ECS); assay type: in vivo, Maus; conditions: mouse; corneal electroshock 1 h after oral test substance; tonic extensor convulsions; read-out: ED50 (mg/kg p.o.) ECS
Method: Antagonismus gegen Elektroschock-induzierte Krämpfe (Maus) (ECS)
as §2, with “Gruppen von 6 männlichen Mäusen” for “Gruppen von 10 männlichen Mäusen”
Eine Stunde nach Prüfsubstanzgabe wird den.Tieren über Cornea-Elektroden ein Elektroschock verabreicht (Stromstärke 12-22 mA, Dauer 0.2 sec. 50 Hz), nachdem vorher an einer zweiten Kontrollgruppe die Stromstärke ermittelt worden war, die bei 100 % der Tiere einen tonischen Extensorkrampf der hinteren Extremitäten hervorruft.
Die Anzahl der durch die Prüfsubstanz vor einem Extensorkrampf geschützten Tiere dient als Maß der antikonvulsiven Wirkung in diesem Test.
Bei vorhandener Schutzwirkung der Prüfsubstanz wird eine mittlere effektive Dosis (ED-50) grafisch (Litchfield and Wilcoxon) oder rechnerisch (Probitanalyse) ermittelt.
Literatur: E.A. SWINYARD, In: Experimental Models of Epilepsy, Raven Press, New York, 1972, p. 433-458.

[10] = acute oral toxicity (LD-50); conditions: in vivo, per os
[11] = test system: Pseudo-cercosporella herpotrichoides; assay: agar plate test with Pseudocercosporella cultures (Versuch V); assay type: cell-based; conditions: 144 h, 6 days after inoculation, read-out: Wirkungsgrad gegenüber Pseudo-cercosporella herpotrichoides in %; for inhibition of growth at 125 µg/mL: 125 ppm Wirkstoff in Biomalzagar; for inhibition of growth at 250 µg/mL: 250 ppm Wirkstoff in Biomalzagar; for inhibition of growth at 500 µg/mL: 500 ppm Wirkstoff in Biomalzagar
Method: Biomalzagar wurde mit den beanspruchten Verbindungen in den in Tabelle 10 angegebenen Konzentrationen versetzt. Nach dem Erstarren des Agars erfolgte die Beimpfung mit Pseudocercosporella-Kulturen. Jeweils 20 µl einer Sporensuspension wurden auf das Zentrum der Agarplatte aufgebracht. Die Versuche wurden 6 Tage nach Beimpfung ausgewertet. Der Wirkungsgrad der Wirkstoffe wird ausgedrückt in % im Vergleich zur Kontrolle (Agarmedium ohne Wirkstoff).

[12] = 60 mg Wirkstoff/Liter Spritzbrühe
[13] = 125 mg Wirkstoff/Liter Spritzbrühe
[14] = 250 mg Wirkstoff/Liter Spritzbrühe
[15] = 500 mg Wirkstoff/Liter Spritzbrühe

| MIC [3] | MIC [4] | MIC [5] | MIC [6] | MIC [7] | Structure (SMILES) | mit Weizenmehltau befallene Blattfläche in % [1, 12] | mit Weizenmehltau befallene Blattfläche in % [1, 13] | mit Weizenmehltau befallene Blattfläche in % [1, 14] | mit Weizenmehltau befallene Blattfläche in % [1, 15] | Mykosen (Durchmesser in mm) Präparat + Vehikel x2 [2] | Mykosen Differenz (%) [2] | Mykosen (Durchmesser in mm) Differenz x1 - x2 [2] | ED50 [8] | ED50 [9] | LD50 [10] | inhibition of growth at 125 µg/mL [11] | inhibition of growth at 250 µg/mL [11] | inhibition of growth at 500 µg/mL [11] |
| --- | --- | --- | --- | --- | --- | --- | --- | --- | --- | --- | --- | --- | --- | --- | --- | --- | --- | --- |
|  |  |  |  |  | CC1(C)CC(O)(Cn2ccnc2)c2ccccc21 (centres unmarked) [Beispiel 36, 1-(1H-Imidazol-1-ylmethyl)-3,3-dimethyl-indan-1-ol] | 0-3% | 0-3% | 0% | 0% |  |  |  |  |  |  |  |  |  |
|  |  |  |  |  | OC1(Cn2ccnc2)CCc2ccccc21 (centres unmarked) [Verbindung 1 (Tab. 3), 1-Hydroxy-1-(1H-imidazol-1-ylmethyl)-indan] |  |  |  |  |  |  |  | 70 mg/kg | 18.2 mg/kg | 300 mg/kg |  |  |  |
|  |  |  |  |  | OC1(Cn2ccnc2)CCc2cc(Oc3ccccc3)ccc21 (centres unmarked) [Verbindung 11 (Tab. 3)] |  |  |  |  |  |  |  | 9.3 mg/kg |  |  | 100% | 100% | 100% |
|  |  |  |  |  | c1ccc(-c2ccc(C3(Cn4ccnc4)CCc4ccccc43)cc2)cc1 (centres unmarked) [Verbindung 13 (Tab. 1)] |  |  |  |  |  |  |  | 16 mg/kg | 17.3 mg/kg | > 300 mg/kg | 100% | 100% | 100% |
| 1.95 µg/mL (≈ 6.04 µM) | 0.97 µg/mL (≈ 3 µM) | 0.97 µg/mL (≈ 3 µM) | 0.97 µg/mL (≈ 3 µM) | 0.97 µg/mL (≈ 3 µM) | Clc1ccc(C2(Cn3ccnc3)CCCc3ccccc32)cc1 (centres unmarked) [Verbindung 20 (Tab. 1)] | 3% | 0-3% | 0% | 0% | 4.3 mm | (138.5) % | 9.7 mm |  |  |  |  |  |  |
|  |  |  |  |  | Fc1ccc(C2(Cn3ccnc3)CCCc3ccccc32)c(F)c1 (centres unmarked) [Verbindung 32 (Tab. 1)] |  |  |  |  |  |  |  | 17.2 mg/kg | 60 mg/kg |  | 100% | 100% | 100% |
|  |  |  |  |  | Fc1cc(Cl)ccc1C1(Cn2ccnc2)CCCc2ccccc21 (centres unmarked) [Verbindung 33 (Tab. 1)] |  |  |  |  |  |  |  | 55 mg/kg | 24.6 mg/kg |  | 100% | 100% | 100% |
|  |  |  |  |  | Cc1ccc(C2(Cn3ccnc3)CCc3ccccc32)cc1C (centres unmarked) [Verbindung 53 (Tab. 1)] |  |  |  |  |  |  |  | 30 mg/kg | 35.1 mg/kg | > 300 mg/kg | 100% | 100% | 100% |
| 0.48 µg/mL (≈ 1.32 µM) | 1.95 µg/mL (≈ 5.35 µM) | 0.007 µg/mL (≈ 0.0192 µM) | 0.24 µg/mL (≈ 0.658 µM) | 0.06 µg/mL (≈ 0.165 µM) | c1ccc(-c2ccc(C3(Cn4ccnc4)CCCc4ccccc43)cc2)cc1 (centres unmarked) [Verbindung 60 (Tab. 1)] |  |  |  |  | 4.5 mm | (157.1) % | 11 mm |  |  |  | 100% | 100% | 100% |
| 1.95 µg/mL (≈ 5.32 µM) | 1.95 µg/mL (≈ 5.32 µM) | 0.06 µg/mL (≈ 0.164 µM) | 0.97 µg/mL (≈ 2.65 µM) | 0.97 µg/mL (≈ 2.65 µM) | c1ccc(Oc2ccc(C3(Cn4ccnc4)CCc4ccccc43)cc2)cc1 (centres unmarked) [Verbindung 67 (Tab. 1)] |  |  |  |  | 3.2 mm | (107.1) % | 7.5 mm |  |  |  |  |  |  |
| 0.97 µg/mL (≈ 2.55 µM) | 0.97 µg/mL (≈ 2.55 µM) | 0.06 µg/mL (≈ 0.158 µM) | 0.48 µg/mL (≈ 1.26 µM) | 0.12 µg/mL (≈ 0.315 µM) | c1ccc(Oc2ccc(C3(Cn4ccnc4)CCCc4ccccc43)cc2)cc1 (centres unmarked) [Verbindung 70 (Tab. 1)] |  |  |  |  | 3 mm | (182.8) % | 12.8 mm |  |  |  |  |  |  |

| Structure (SMILES) | MIC [3] | MIC [4] | MIC [5] | MIC [6] | MIC [7] | mit Weizenmehltau befallene Blattfläche in % [1, 12] | mit Weizenmehltau befallene Blattfläche in % [1, 13] | mit Weizenmehltau befallene Blattfläche in % [1, 14] | mit Weizenmehltau befallene Blattfläche in % [1, 15] | Mykosen (Durchmesser in mm) Präparat + Vehikel x2 [2] | Mykosen Differenz (%) [2] | Mykosen (Durchmesser in mm) Differenz x1 - x2 [2] | ED50 [8] | ED50 [9] | LD50 [10] | inhibition of growth at 125 µg/mL [11] | inhibition of growth at 250 µg/mL [11] | inhibition of growth at 500 µg/mL [11] |
| --- | --- | --- | --- | --- | --- | --- | --- | --- | --- | --- | --- | --- | --- | --- | --- | --- | --- | --- |
| Clc1ccccc1C(c1ccccc1)(c1ccccc1)n1ccnc1 [Clotrimazol, reference compound] | 3.9 µg/mL (≈ 11.3 µM) | 1.95 µg/mL (≈ 5.65 µM) | 0.97 µg/mL (≈ 2.81 µM) | 0.97 µg/mL (≈ 2.81 µM) | 0.97 µg/mL (≈ 2.81 µM) |  |  |  |  | 7.6 mm | (100) % | 7 mm |  |  |  |  |  |  |
